Measurements taken from PubChem BioAssay AID248 (DTP/NCI, 2004).
Where “and” joins values, the source holds several entries; their conditions need not be identical. Identical values can stand only once. Toxic doses and inconclusive results are not listed. Cut-off read from the data, not from the text of the source: active = T/C of 150% or more; inactive = T/C below 125%.

System: L1210 leukemia ip in BDF1 mice, survival T/C
Assay: NCI In Vivo Anticancer Drug Screen. Data for tumor model L1210 Leukemia (intraperitoneal) in B6D2F1 (BDF1) mice
Conditions: endpoint: mean survival time, higher = longer survival
Outline: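 Each compound was tested against a transplantable tumor grown in mice. The endpoint was survival, with treated animals benchmarked against vehicle controls as a simple ratio.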

[1] = dose: 100.0 mg/kg/injection, schedule: Q01DX009 (ip), vehicle: saline with Tween-80
[2] = dose: 100.0 mg/kg/injection, schedule: Q04DX003 (ip), vehicle: saline with Tween-80
[3] = dose: 200.0 mg/kg/injection, schedule: Q01DX009 (ip), vehicle: saline with Tween-80
[4] = dose: 200.0 mg/kg/injection, schedule: Q04DX003 (ip), vehicle: saline with Tween-80
[5] = dose: 400.0 mg/kg/injection, schedule: Q01DX009 (ip), vehicle: saline with Tween-80
[6] = dose: 400.0 mg/kg/injection, schedule: Q04DX003 (ip), vehicle: saline with Tween-80
[7] = dose: 100.0 mg/kg/injection, schedule: Q01DX001 (ip), vehicle: saline
[8] = dose: 200.0 mg/kg/injection, schedule: Q01DX001 (ip), vehicle: saline
[9] = dose: 25.0 mg/kg/injection, schedule: Q01DX009 (ip), vehicle: saline with Tween-80
[10] = dose: 50.0 mg/kg/injection, schedule: Q01DX009 (ip), vehicle: saline with Tween-80
[11] = dose: 100.0 mg/kg/injection, schedule: Q01DX009 (ip), vehicle: saline
[12] = dose: 200.0 mg/kg/injection, schedule: Q01DX009 (ip), vehicle: saline
[13] = dose: 400.0 mg/kg/injection, schedule: Q01DX009 (ip), vehicle: saline
[14] = dose: 75.0 mg/kg/injection, schedule: Q01DX001 (ip), vehicle: saline
[15] = dose: 150.0 mg/kg/injection, schedule: Q01DX001 (ip), vehicle: saline
[16] = dose: 300.0 mg/kg/injection, schedule: Q01DX001 (ip), vehicle: saline
[17] = dose: 75.0 mg/kg/injection, schedule: Q01DX001 (ip), vehicle: carboxymethylcellulose (CMC)
[18] = dose: 150.0 mg/kg/injection, schedule: Q01DX001 (ip), vehicle: carboxymethylcellulose (CMC)

Measured: T/C

CC(C)(CBr)C(=O)N1CCN(C(=O)C(C)(C)CBr)CC1
inactive: dose: 6.2 mg/kg/injection, schedule: Q01DX Z (ip), vehicle: carboxymethylcellulose (CMC) 109 % of control | dose: 9.2 mg/kg/injection, schedule: Q01DX Z (ip), vehicle: methylcellulose (MC) 94 % of control | dose: 9.4 mg/kg/injection, schedule: Q01DX Z (ip), vehicle: carboxymethylcellulose (CMC) 118 % of control | dose: 14.0 mg/kg/injection, schedule: Q01DX Z (ip), vehicle: carboxymethylcellulose (CMC) 116 % of control | dose: 14.0 mg/kg/injection, schedule: Q01DX Z (ip), vehicle: methylcellulose (MC) 103 % of control | dose: 21.0 mg/kg/injection, schedule: Q01DX Z (ip), vehicle: carboxymethylcellulose (CMC) 121 % of control | dose: 21.0 mg/kg/injection, schedule: Q01DX Z (ip), vehicle: methylcellulose (MC) 103 % of control | dose: 42.0 mg/kg/injection, schedule: Q01DX Z (ip), vehicle: methylcellulose (MC) 111 % of control | dose: 50.0 mg/kg/injection, schedule: Q01DX Z (ip), vehicle: methylcellulose (MC) 121 % of control | dose: 68.0 mg/kg/injection, schedule: Q01DX Z (ip), vehicle: methylcellulose (MC) 98 % of control

O=C1OCCN1c1ccccc1
inactive: dose: 100.0 mg/kg/injection, schedule: Q01DX001 (ip), vehicle: Klucel (hydroxypropylcellulose) (HPC) 90 % of control | [1] 93 % of control | [2] 101 % of control | dose: 200.0 mg/kg/injection, schedule: Q01DX001 (ip), vehicle: Klucel (hydroxypropylcellulose) (HPC) 87 % of control | [3] 90 % of control | [4] 113 % of control | dose: 400.0 mg/kg/injection, schedule: Q01DX001 (ip), vehicle: Klucel (hydroxypropylcellulose) (HPC) 100 % of control | [5] 93 % of control | [6] 95 % of control

CC(=O)OC1OC(C[Se][As](C)C)C(OC(C)=O)C(OC(C)=O)C1OC(C)=O (centres undefined)
inactive: dose: 100.0 mg/kg/injection, schedule: Q04DX003 (ip), vehicle: Klucel (hydroxypropylcellulose) (HPC) 104 % of control | dose: 200.0 mg/kg/injection, schedule: Q04DX003 (ip), vehicle: Klucel (hydroxypropylcellulose) (HPC) 98 % of control | dose: 400.0 mg/kg/injection, schedule: Q04DX003 (ip), vehicle: Klucel (hydroxypropylcellulose) (HPC) 95 % of control

[O-]/[N+](=C\c1cccc(O)c1)c1ccccc1
inactive: dose: 50.0 mg/kg/injection, schedule: Q01DX001 (ip), vehicle: saline 102 % of control | [7] 106 % of control | [8] 102 % of control | dose: 400.0 mg/kg/injection, schedule: Q01DX001 (ip), vehicle: saline 100 % of control

N#Cc1nc2nc(C(F)(F)F)[nH]c2nc1C#N
inactive: dose: 12.5 mg/kg/injection, schedule: Q01DX009 (ip), vehicle: saline with Tween-80 101 % of control | dose: 12.5 mg/kg/injection, schedule: Q04DX003 (ip), vehicle: saline with Tween-80 120 % of control | [9] 103 % of control | dose: 25.0 mg/kg/injection, schedule: Q04DX003 (ip), vehicle: saline with Tween-80 103 % of control | [10] 93 % of control

CSc1cccc[n+]1[O-]
inactive: [11] 105 % of control | dose: 100.0 mg/kg/injection, schedule: Q04DX002 (ip), vehicle: saline 103 % of control and 108 % of control | [12] 108 % of control | dose: 200.0 mg/kg/injection, schedule: Q04DX002 (ip), vehicle: saline 105 % of control | [13] 101 % of control | dose: 400.0 mg/kg/injection, schedule: Q04DX002 (ip), vehicle: saline 108 % of control and 118 % of control

O=C1CC(Cc2n[nH]c3c2CCC3)CC(=O)N1
inactive: dose: 100.0 mg/kg/injection, schedule: Q01DX001 (ip), vehicle: carboxymethylcellulose (CMC) 103 % of control | dose: 100.0 mg/kg/injection, schedule: Q04DX003 (ip), vehicle: carboxymethylcellulose (CMC) 97 % of control | dose: 200.0 mg/kg/injection, schedule: Q01DX001 (ip), vehicle: carboxymethylcellulose (CMC) 97 % of control | dose: 200.0 mg/kg/injection, schedule: Q04DX003 (ip), vehicle: carboxymethylcellulose (CMC) 94 % of control | dose: 400.0 mg/kg/injection, schedule: Q01DX001 (ip), vehicle: carboxymethylcellulose (CMC) 105 % of control | dose: 400.0 mg/kg/injection, schedule: Q04DX003 (ip), vehicle: carboxymethylcellulose (CMC) 101 % of control

Cc1ccccc1NC(=O)CS
inactive: [2] 95 % of control | [4] 88 % of control

Cn1ncc2c(NCc3ccccc3)ncnc21
inactive: [7] 97 % of control | [8] 110 % of control

CC1=C(O)C(=O)C=C2C1=CC=C1[C@@]2(C)CC[C@@]2(C)[C@@H]3C[C@](C)(C(=O)O)CC[C@]3(C)CC[C@]12C
inactive: dose: 5.0 mg/kg/injection, schedule: Q01DX001 (ip), vehicle: carboxymethylcellulose (CMC) 95 % of control and 100 % of control | dose: 10.0 mg/kg/injection, schedule: Q01DX001 (ip), vehicle: carboxymethylcellulose (CMC) 97 % of control | dose: 20.0 mg/kg/injection, schedule: Q01DX001 (ip), vehicle: carboxymethylcellulose (CMC) 103 % of control and 89 % of control | dose: 40.0 mg/kg/injection, schedule: Q01DX001 (ip), vehicle: carboxymethylcellulose (CMC) 122 % of control

COc1cc([N+](=O)[O-])ccc1NC(=O)N(C1CCCCC1)C1CCCCC1
inactive: [10] 100 % of control and 106 % of control | dose: 50.0 mg/kg/injection, schedule: Q04DX002 (ip), vehicle: saline with Tween-80 90 % of control | dose: 100.0 mg/kg/injection, schedule: Q01DX001 (ip), vehicle: saline with Tween-80 95 % of control | [1] 96 % of control and 108 % of control | dose: 100.0 mg/kg/injection, schedule: Q04DX002 (ip), vehicle: saline with Tween-80 93 % of control and 99 % of control and 105 % of control | [2] 108 % of control | dose: 200.0 mg/kg/injection, schedule: Q01DX001 (ip), vehicle: saline with Tween-80 91 % of control | [3] 100 % of control and 104 % of control | dose: 200.0 mg/kg/injection, schedule: Q04DX002 (ip), vehicle: saline with Tween-80 89 % of control | [4] 106 % of control | dose: 400.0 mg/kg/injection, schedule: Q01DX001 (ip), vehicle: saline with Tween-80 91 % of control | [5] 108 % of control and 111 % of control | dose: 400.0 mg/kg/injection, schedule: Q04DX002 (ip), vehicle: saline with Tween-80 93 % of control and 97 % of control and 99 % of control | [6] 104 % of control

COC(=O)NC1CCCC1I (centres undefined)
inactive: [14] 102 % of control | [15] 109 % of control | [16] 98 % of control

CCCCS(=O)(=O)N1CCCCC1
inactive: [11] 107 % of control | [12] 95 % of control | [13] 106 % of control

N#C/C(=C\c1ccc([N+](=O)[O-])o1)[N+](=O)[O-]
inactive: [9] 110 % of control | [10] 96 % of control | [1] 104 % of control | [2] 106 % of control

O=C(c1ccccc1)N(CCCl)C(=O)N(CCCl)C(=O)c1ccccc1
inactive: [17] 104 % of control | dose: 75.0 mg/kg/injection, schedule: Q01DX009 (ip), vehicle: saline with Tween-80 95 % of control | dose: 75.0 mg/kg/injection, schedule: Q04DX003 (ip), vehicle: saline with Tween-80 91 % of control | [18] 101 % of control | dose: 150.0 mg/kg/injection, schedule: Q01DX009 (ip), vehicle: saline with Tween-80 98 % of control | dose: 150.0 mg/kg/injection, schedule: Q04DX003 (ip), vehicle: saline with Tween-80 92 % of control | dose: 300.0 mg/kg/injection, schedule: Q01DX001 (ip), vehicle: carboxymethylcellulose (CMC) 103 % of control | dose: 300.0 mg/kg/injection, schedule: Q04DX003 (ip), vehicle: saline with Tween-80 89 % of control

CCOC(=O)/C=C(/C)Nc1ccc(SC)cc1
inactive: [1] 100 % of control | [3] 96 % of control | [5] 100 % of control

NOCc1cnccn1
inactive: [14] 92 % of control | [15] 96 % of control | [16] 88 % of control

CN(N)C(=O)Nc1ccccc1Cl
inactive: [17] 100 % of control | [18] 107 % of control

CCN(CC)CC(O)Cn1cnc2c(N)ncnc21 (centres undefined)
inactive: dose: 50.0 mg/kg/injection, schedule: Q04DX003 (ip), vehicle: saline 104 % of control | dose: 100.0 mg/kg/injection, schedule: Q04DX003 (ip), vehicle: saline 111 % of control | dose: 200.0 mg/kg/injection, schedule: Q04DX003 (ip), vehicle: saline 93 % of control
